What was measured:
[1] = target: T1, human dopamine D2L receptors (long isoform) (Homo sapiens, UniProt P14416); test: Dopamine D2L receptor binding, [125I] iodospiperone displacement; settings: membranes of HEK-293 cells stably expressing human D2L receptor; 0.01 nM [125I] iodospiperone; 25° C., 60 minutes; read-out: Ki(D2)*
T1 construct: expressed in transfected cells; membranes
Protocol: (§1) The substance to be tested was either dissolved in methanol/Chremophor® (BASF-AG) or in dimethyl sulfoxide and then diluted with water to the desired concentration.
(§2) Each assay mixture was run in triplicate.
The incubation buffer contained 50 mM tris, 120 mM NaCl, 5 mM KCl, 2 mM CaCl2, 2 mM MgCl2 and 0.1% bovine serum albumin. The buffer was adjusted to pH 7.4 with HCl.
(§3) Measurement and Analysis:
(§4) After having been incubated at 25° C. for 60 minutes, the assay mixtures were filtered through a Whatman GF/B glass fiber filter under vacuum using a cell collecting device. The filters were transferred to scintillation viols using a filter transfer system. After 4 ml of Ultima Gold® (Packard) have been added, the samples were shaken for one hour and the radioactivity was then counted in a Beta-Counter (Packard, Tricarb 2000 or 2200CA). The cpm values were converted into dpm using a standard quench series and the program belonging to the instrument.
(§5) The inhibition curves were analyzed by means of iterative nonlinear regression analysis using the Statistical Analysis System (SAS) which is similar to the “LIGAND” program described by Munson and Rodbard.
(§6) The results of the receptro binding studies are expressed as receptor binding constants Ki(D2) and Ki(D3), respectively, as herein before described, and given in table 2.

[2] = target: T2, human dopamine D3 receptors (Homo sapiens, UniProt P35462); test: Dopamine D3 receptor binding, [125I]-iodosulpride displacement; settings: for Ki: membranes of HEK-293 cells stably expressing human D3 receptor, 0.1 nM [125I]-iodosulpride, 25° C., 60 minutes; for Ki(D2)*/Ki(D3)*: selectivity ratio of receptor binding constants D2 versus D3
T2 construct: expressed in transfected cells; membranes
Protocol: as §1, §2
The incubation buffer contained 50 mM tris, 120 mM NaCl, 5 mM KCl, 2 mM CaCl2, 2 mM MgCl2 and 0.1% bovine serum albumin, 10 μM quinolone and 0.1% ascorbic acid (prepared fresh daily). The buffer was adjusted to pH 7.4 with HCl.
as §3, §4, §5, §6

T1 sequence (P14416 whole entry, canonical isoform): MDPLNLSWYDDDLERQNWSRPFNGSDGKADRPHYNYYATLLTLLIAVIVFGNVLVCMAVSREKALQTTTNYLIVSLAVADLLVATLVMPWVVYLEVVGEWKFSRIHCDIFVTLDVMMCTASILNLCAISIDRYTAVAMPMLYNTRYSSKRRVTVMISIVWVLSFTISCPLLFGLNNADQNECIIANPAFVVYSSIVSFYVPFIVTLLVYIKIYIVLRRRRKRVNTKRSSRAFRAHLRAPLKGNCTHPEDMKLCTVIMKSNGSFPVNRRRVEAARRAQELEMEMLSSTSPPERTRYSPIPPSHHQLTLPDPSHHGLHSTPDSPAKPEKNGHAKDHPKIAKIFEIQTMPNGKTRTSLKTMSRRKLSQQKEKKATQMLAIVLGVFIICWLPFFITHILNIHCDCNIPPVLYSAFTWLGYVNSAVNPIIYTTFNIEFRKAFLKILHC
T2 sequence (P35462 whole entry): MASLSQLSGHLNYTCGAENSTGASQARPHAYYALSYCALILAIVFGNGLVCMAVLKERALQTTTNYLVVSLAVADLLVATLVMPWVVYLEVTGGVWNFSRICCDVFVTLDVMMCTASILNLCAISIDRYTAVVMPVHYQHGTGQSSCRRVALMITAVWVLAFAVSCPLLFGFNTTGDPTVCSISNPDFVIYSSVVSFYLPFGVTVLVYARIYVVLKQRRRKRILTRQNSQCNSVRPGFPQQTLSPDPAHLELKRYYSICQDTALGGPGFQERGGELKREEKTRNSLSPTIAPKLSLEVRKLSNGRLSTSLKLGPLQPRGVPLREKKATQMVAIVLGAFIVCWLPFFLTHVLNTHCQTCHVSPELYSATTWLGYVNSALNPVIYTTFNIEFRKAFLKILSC

**Q.** How did the Ki [1] turn out when `CCCNC1CCc2cc(NS(=O)(=O)c3ccc(C(C)C)cc3)cnc2C1` (stereo not drawn) [Example 15, 4-Isopropyl-N-(7-propylamino-5,6,7,8-tetrahydro-quinolin-3-yl)-benzenesulfonamide] was run?
**A.** 0.476 µM

**Q.** What about the Ki [2] of the same compound?
**A.** 0.0113 µM

**Q.** And the “Ki(D2)*/Ki(D3)*” value [2]?
**A.** 42

**Q.** For `C=CCN1CCC[C@H]2c3ccc(NS(=O)(=O)c4ccc(C(C)C)cc4)cc3CC[C@@H]21` [Example 19, N-((4aS,10bS)-4-Allyl-1,2,3,4,4a,5,6,10b-octahydro-benzo[f]quinolin-8-yl)-4-isopropylbenzenesulfonamide], which Ki [1] is on record?
**A.** 0.051 µM

**Q.** And the Ki [2]?
**A.** 0.0025 µM

**Q.** And the “Ki(D2)*/Ki(D3)*” value [2]?
**A.** 21

**Q.** Which Ki [1] does the source give for `C=CCN1CCC[C@H]2c3cc(NS(=O)(=O)c4ccc(C(C)C)cc4)ccc3CC[C@@H]21` [Example 20, N-((4aS,10bS)-4-Allyl-1,2,3,4,4a,5,6,10b-octahydro-benzo[f]quinolin-9-yl)-4-isopropylbenzenesulfonamide] here?
**A.** 0.339 µM

**Q.** And the Ki [2]?
**A.** 0.0075 µM

**Q.** What about the “Ki(D2)*/Ki(D3)*” value [2] of the same compound?
**A.** 45

**Q.** With `CCCN(CCC)[C@@H]1CCc2cc(NS(=O)(=O)c3ccc(C(C)C)cc3)ccc2C1.Cl` [Example 29, N—((R)-6-Dipropylamino-5,6,7,8-tetrahydro-naphthalen-2-yl)-4-isopropyl-benzenesulfonamide, hydrochloride] as the compound, how does the Ki [1] read?
**A.** 0.00139 µM

**Q.** What about the Ki [2] of the same compound?
**A.** 0.00037 µM

**Q.** And the “Ki(D2)*/Ki(D3)*” value [2]?
**A.** 4

**Q.** With `CCCN(CCC)[C@H]1CCc2cc(NS(=O)(=O)c3ccc(C(C)C)cc3)ccc2C1.Cl` [Example 30, N—((S)-6-Dipropylamino-5,6,7,8-tetrahydro-naphthalen-2-yl)-4-isopropylbenzenesulfonamide, hydrochloride] as the compound, how does the Ki [1] read?
**A.** 0.0113 µM

**Q.** What about the Ki [2] of the same compound?
**A.** 0.00039 µM

**Q.** What about the “Ki(D2)*/Ki(D3)*” value [2] of the same compound?
**A.** 29

**Q.** Which results are given for `CCCNC1COc2cc(NS(=O)(=O)c3ccc(C(C)C)cc3)cnc2C1` (stereo not drawn) [Example 35, 4-Isopropyl-N-(3-propylamino-3,4-dihydro-2H-pyrano[3,2-b]pyridin-7-yl)benzenesulfonamide]?
**A.** Ki [1]: 12.3 µM; Ki [2]: 0.0304 µM; Ki(D2)*/Ki(D3)* [2]: 406

**Q.** For `CCCN[C@H]1CCc2cc(NS(=O)(=O)c3ccc(-c4cnco4)s3)ccc2C1` [Example 38, 5-Oxazol-5-yl-thiophene-2-sulfonic acid ((S)-6-propylamino-5,6,7,8-tetrahydro-naphthalen-2-yl)-amide], which Ki [1] is on record?
**A.** 0.727 µM

**Q.** And the Ki [2]?
**A.** 0.00481 µM

**Q.** And the “Ki(D2)*/Ki(D3)*” value [2]?
**A.** 151

**Q.** How did the Ki [1] turn out when `CCCN[C@H]1CCc2cc(NS(=O)(=O)c3ccc([C@@H](C)C(F)(F)F)cc3)ccc2C1` [Example 41, N—((S)-6-Propylamino-5,6,7,8-tetrahydro-naphthalen-2-yl)-4-((R)-2,2,2-trifluoro-1-methylethyl)-benzenesulfonamide] was run?
**A.** 1.23 µM

**Q.** And the Ki [2]?
**A.** 0.0122 µM

**Q.** What about the “Ki(D2)*/Ki(D3)*” value [2] of the same compound?
**A.** 101

**Q.** For `CCCN[C@H]1CCc2cc(NS(=O)(=O)c3ccc([C@H](C)C(F)(F)F)cc3)ccc2C1` [Example 42, N—((S)-6-Propylamino-5,6,7,8-tetrahydro-naphthalen-2-yl)-4-((S)-2,2,2-trifluoro-1-methylethyl)-benzenesulfonamide], which Ki [1] is on record?
**A.** 0.514 µM

**Q.** What about the Ki [2] of the same compound?
**A.** 0.00195 µM

**Q.** And the “Ki(D2)*/Ki(D3)*” value [2]?
**A.** 263

**Q.** For `CCCN[C@H]1CCc2cc(NS(=O)(=O)c3ccc(-c4ccon4)s3)ccc2C1` [Example 43, 5-Isoxazol-3-yl-thiophene-2-sulfonic acid ((S)-6-propylamino-5,6,7,8-tetrahydro-naphthalen-2-yl)-amide], which Ki [1] is on record?
**A.** 3.48 µM

**Q.** And the Ki [2]?
**A.** 0.0307 µM

**Q.** What about the “Ki(D2)*/Ki(D3)*” value [2] of the same compound?
**A.** 113

**Q.** For `CCCN[C@H]1CCc2cc(NS(=O)(=O)c3ccc(N4CC[C@@H](F)C4)cc3)ccc2C1` [Example 44, 4-((R)-3-Fluoro-pyrrolidin-1-yl)-N—((S)-6-propylamino-5,6,7,8-tetrahydro-naphthalen-2-yl)benzenesulfonamide], which Ki [1] is on record?
**A.** 0.258 µM

**Q.** And the Ki [2]?
**A.** 0.00062 µM

**Q.** What about the “Ki(D2)*/Ki(D3)*” value [2] of the same compound?
**A.** 416

**Q.** With `CCCN[C@H]1CCc2cc(NS(=O)(=O)c3ccc(N4CCOCC4)cc3)ccc2C1` [Example 45, 4-Morpholin-4-yl-N—((S)-6-propylamino-5,6,7,8-tetrahydro-naphthalen-2-yl)benzenesulfonamide] as the compound, how does the Ki [1] read?
**A.** 1.31 µM

**Q.** And the Ki [2]?
**A.** 0.0139 µM

**Q.** And the “Ki(D2)*/Ki(D3)*” value [2]?
**A.** 94

**Q.** `CCCN[C@H]1CCc2cc(NS(=O)(=O)c3ccc(-n4cccn4)cc3)ccc2C1.Cl` [Example 76, N—((S)-6-Propylamino-5,6,7,8-tetrahydro-naphthalen-2-yl)-4-pyrazol-1-ylbenzenesulfonamide, hydrochloride] was tested. Which Ki [1] did it give?
**A.** 0.728 µM

**Q.** And the Ki [2]?
**A.** 0.00862 µM

**Q.** What about the “Ki(D2)*/Ki(D3)*” value [2] of the same compound?
**A.** 84

**Q.** For `CCCN[C@H]1CCc2cc(NS(=O)(=O)c3ccc(C(C)C(F)F)cc3)ccc2C1.Cl` (stereo partly drawn) [Example 77, 4-(2,2-Difluoro-1-methyl-ethyl)-N—((S)-6-propylamino-5,6,7,8-tetrahydro-naphthalen-2-yl)benzenesulfonamide, hydrochloride], which Ki [1] is on record?
**A.** 0.501 µM

**Q.** And the Ki [2]?
**A.** 0.00165 µM

**Q.** And the “Ki(D2)*/Ki(D3)*” value [2]?
**A.** 304
